Experimental data from US6657105B2 (Riken, priority 2000, dated 2003).

Tested on: Or-Prnp transgenic mice
Conditions: mouse, in vivo, 4 mg/kg

Structure (SMILES): CN1[C@@H]2CC[C@H]1C[C@@H](OC(=O)C(CO)c1ccccc1)C2 (stereo partly shown) [atropine]
- abnormal waves in electrocardiogram after administration of heart stimulant: only Or-Prnp transgenic mice showed the abnormal waves in electrocardiogram
